In patent US8993611B2, “Family of polyamine arylethylamide compounds, and their cosmetic or dermocosmetic use” (Exsymol, priority 2012, dated 2015):
Read-outs that look alike come from different tables or passages of the source.

Tests used:
[1] = tested on: Salmonella typhimurium (TA 100); test: Test 3: detoxification of the reference glycotoxin methyl-glyoxal (MGO), Ames pre-incubation test; assay type: cell-based
Description: […] The resulting mixture was incubated 30 minutes at 37° C. under orbital stirring (122 rpm).
(§1) The counting of colonies was then achieved manually.
In addition to the N-((4-imidazolyl)ethyl)-α, β-diaminopropanamide compound, the following compounds according to the invention were also tested at different concentrations: • N-((4-hydroxyphenyl)ethyl)-α,β-diaminopropanamide • N-((4-imidazolyl)ethyl)-α,γ-diaminobutanamide • N-((3,4-dihydroxyphenyl)ethyl)-α,β-diaminopropanamide • N-((4-imidazolyl)ethyl)-L-lysinamide
The results are gathered in table 3 below, compared to the PBS phosphate buffer (negative control).

[2] = tested on: purified histones, enriched with H1 histones; test: Test 1: protection of histones towards methyl-glyoxal (MGO), fluorimetry of the dialyzed mixture; assay type: biochemical; settings: for RFU (fluorescence of dialyzed mixture, indicative of histone damage by MGO): compound 10 mM + histones + MGO 10 mM, 24 h at 37° C., excitation 340 nm, emission 470 nm, control histones + MGO 62231; for formation of non-enzymatic glycosylation products from reaction of glycotoxin with histones: result in words
Description: A solution of purified histones (5 mg/l), enriched with H1 histones, was incubated in the presence of the reference glycotoxin MGO (10 mM) during 24 h at 37° C. under stirring. In order to follow specifically fluorescence of products from non-enzymatic glycosylation of histones, it was necessary to get rid of MGO fluorescence as well as the one of the glycotoxin-trapper products. For this, the reaction mixture was dialyzed. Then it was introduced in a dialysis tape and three successive 3 hour-baths were run, each one in a NaH2PO4 buffer solution (83.3 mM) in which MGO was diluted. Dialyzed mixture fluorescence which was indicative of the damage of histones made by reaction with MGO (adduct formation) was measured by fluorimetry (λ excitation: 340 nm; λ emission: 470 nm). The measure unit corresponds to RFU (for “Relative Fluorescence Unit”).

[3] = tested on: Salmonella typhimurium (TA 100); test: Test 2: detoxification of glycotoxins released by fructosylated casein, Ames pre-incubation test without metabolic activator; assay type: cell-based; settings: for Number of revertants: TA 100, PBS control 84
Excerpt: The study was achieved on a Salmonella typhimurium (TA 100) bacterial strain which belongs to reference strains used for the Ames regulatory test (ICH steering committee, Jul. 19, 1995, Guidance on specific aspect of regulatory genotoxicity tests for pharmaceuticals). The objective was to determine, in the mutated strains' colonies, the number of revertant colonies which are representative of mutagenesis in casein-fructose system, with or without a compound according to the invention.
Experimentally, 2.7 g of D-(+)-fructose were solubilized at room temperature in 100 mL of phosphate buffer. After collecting 20 g of the colourless limpid solution (Cfructose=150 mM), 0.600 g of sodium caseinate were introduced until complete dissolution. The solution was then introduced in 2×10mL in screw-top test tubes, then placed in an oil bath at 120° C. during 1 h.
To different concentrations (400 μl) of compound according to the invention were successively added 500 μl of glycated casein and 100 μl of the above-mentioned bacterial suspension. The resulting mixture was incubated 30 minutes at 37° C. under orbital stirring (122 rpm).
as §1
The results are presented in table 2 below, compared to a negative control (PBS phosphate buffer).

[4] = tested on: Salmonella typhimurium (TA 100); settings: positive control; PBS control 88
Description: The study was carried out according to an almost-identical manner to the here-above test 2, with however D-glucose replacing D-(+)-fructose and according to following conditions. Experimentally, 18.02 g of D-glucose were solubilized at room temperature in 100 mL of water. 10 mL of the solution corresponding to 10 mM of the compound according to the invention, N-((4-imidazolyl)ethyl)-α,β-diamino-propanamide, were sampled and introduced after a pH adjustment by sodium hydroxide. The resulting reaction mixture was then introduced in a screw-top test tube, then heated at 100° C. for 80 minutes.
In parallel, the TA 100 strain was cultured in the Nutrient Broth Oxoid N° 2 (NBO2) supplemented with Ampicilline. The culture was placed overnight at 37° C. in an orbital shaker (88 rpm) so that bacteria were in growth exponential phase (10^7 to 10^9 bacteria/ml).
100 μl of test solution were added to 100 μl of the above-mentioned bacterial suspension and to 500 μl of PBS phosphate buffer, the resulting mixture being incubated 1 h at 37° C. under orbital stirring (122 rpm). 2 ml of soft-agar supplemented in biotin histidine and maintained at 45° C. were added. After mixing with Vortex, they were deposited in a Petri dish containing Vogel-Bonner hard-agar. After solidification, dishes were transferred in the incubator at 37° C. during 48-72 h. […]

[5] = compound 75 μM + methyl-glyoxal 140 μM, PBS control 91, MGO alone 161
[6] = compound 750 μM + methyl-glyoxal 140 μM, PBS control 91, MGO alone 161

CC(=O)C=O [Methyl-glyoxal, methyl-glyoxal, reference compound] was tested, and the Number of revertants ([1]; methyl-glyoxal alone 140 μM, PBS control 91) was 161 and the Number of revertants ([1]; methyl-glyoxal alone 280 μM, PBS control 72) was 308.
Compound NCC(N)C(=O)NCCc1ccc(O)c(O)c1 (stereo not drawn) [N-((3,4-dihydroxyphenyl)ethyl)-α,β-diaminopropanamide] has a Number of revertants [1, 5] of 161 and a Number of revertants [1, 6] of 111.
For NCC(N)C(=O)NCCc1ccc(O)cc1 (stereo not drawn) [N-((4-hydroxyphenyl)ethyl)-α,β-diaminopropanamide], the Number of revertants [1, 5] was 152.
Compound NCCCC[C@H](N)C(=O)NCCc1c[nH]cn1 [N-((4-imidazolyl)ethyl)-L-lysinamide] has a Number of revertants [1, 5] of 141 and a Number of revertants [1, 6] of 132.
NCC(N)C(=O)NCCc1c[nH]cn1 (stereo not drawn) [N-((4-imidazolyl)ethyl)-α,β-diaminopropanamide] was tested, and the Number of revertants ([1]; compound 75 μM + methyl-glyoxal 280 μM, PBS control 72, MGO alone 308) was 141, the Number of revertants ([1]; compound 750 μM + methyl-glyoxal 280 μM, PBS control 72, MGO alone 308) was 95 and the “RFU (fluorescence of dialyzed mixture, indicative of histone damage by MGO)” value [2] was 20441 RFU. For the same compound, the “formation of non-enzymatic glycosylation products from reaction of glycotoxin with histones” value [2] was “strongly decrease”, the RFU ([3]; compound 7.5 mM + fructosylated casein, PBS control = 1) was 1.42 RFU and the Number of revertants ([3]; compound 7.5 mM + fructosylated casein) was 119. The “revertant count relative to PBS control” value ([3]; compound 15 mM + fructosylated casein, PBS control = 1) was 1.11 RFU, the Number of revertants ([3]; compound 15 mM + fructosylated casein) was 93 and the “toxicity of the formed glycotoxins” value ([3]; result in words, dose-effect relationship observed) was “strongly decrease”.
NCCC(N)C(=O)NCCc1c[nH]cn1 (stereo not drawn) [N-((4-imidazolyl)ethyl)-α,γ-diaminobutanamide] was tested, and the Number of revertants [1, 5] was 154, the Number of revertants [1, 6] was 116 and the “RFU (fluorescence of dialyzed mixture, indicative of histone damage by MGO)” value [2] was 21526 RFU. For the same compound, the “formation of non-enzymatic glycosylation products from reaction of glycotoxin with histones” value [2] was “strongly decrease”.
For [N-]=[N+]=[N-] [NaN3, sodium azide], the Number of revertants [4] was 211.
